Assay results taken from patent US12129258B2, “Diaryl macrocyclic compound and pharmaceutical composition, and use thereof” (PrimeGene (Beijing) Co., Ltd., priority 2018, dated 2024).
pIC50: −log10 of the molar value. Like-named read-outs stand apart in the source and are kept apart here.

How the values were obtained:
[1] = system: Ba/F3 LMNA-NTRK1-WT; experiment: Cell proliferation inhibition (CellTiter-Glo), Ba/F3 LMNA-NTRK1-WT; type: cell-based; conditions: Mus musculus, BaF3, 72 h
Text: (§1) 4. Inhibitory Effect of Compounds on the Proliferation of TRK Fusion and Mutant Stable Cell Lines (IC50)
(§2) Six cell lines including Ba/F3 LMNA-NTRK1-WT, Ba/F3 LMNA-NTRK1-G595R, Ba/F3 ETV6-NTRK2-WT, Ba/F3 ETV6-NTRK2-G639R, Ba/F3 ETV6-NTRK2-G639R and Ba/F3 ETV6-NTRK3-G623R were used in this experiment.
(§3) The operation is described briefly as follows:
(§4) The cells in logarithmic growth phase were harvested to ensure that the cell viability was above 90%. […] Then each well containing the cells of the 96-well plate was added the compound solutions, 3 wells for each compound solution, and continued to incubate for another 72 hrs. Then CellTiter-Glo® kit (Promega, Cat #G7572) was used to do the detection. First, the CTG reagent was melted and the cell plate was balanced to room temperature. The same volume of CTG solution was added into each well and vibrated on the shaker for 5 minutes to lyse the cells. The cell plate was kept at room temperature for 20 minutes to stabilize the luminescent signal. […] Cell survival rate (%)=(1umdrug−1ummedium)/(1umcell−lummedium)×100%

[2] = system: Ba/F3 LMNA-NTRK1-G595R; experiment: Cell proliferation inhibition (CellTiter-Glo), Ba/F3 LMNA-NTRK1-G595R; type: cell-based; conditions: Mus musculus, BaF3, 72 h
Text: as §1, §2, §3, §4

[3] = target: TRKA (Homo sapiens (Human), UniProt P04629); experiment: HTRF kinase activity assay, TRKA; type: biochemical; conditions: 90 μM ATP
Procedure: The IC50 values of the compounds were calculated using XLFIT5 (IDBS) software.

[4] = system: Ba/F3 ETV6-NTRK2-G639R; experiment: Cell proliferation inhibition (CellTiter-Glo), Ba/F3 ETV6-NTRK2-G639R; type: cell-based; conditions: Mus musculus, BaF3, 72 h, 72 hrs, read-out: IC50 proliferation Ba/F3 ETV6-NTRK2-G639R
Procedure: as §1
Six cell lines including Ba/F3 LMNA-NTRK1-WT, Ba/F3 LMNA-NTRK1-G595R, Ba/F3 ETV6-NTRK2-WT, Ba/F3 ETV6-NTRK2-G639R, Ba/F3 ETV6-NTRK2-G639R and Ba/F3 ETV6-NTRK3-G623R were used in this experiment. For the six cell lines, the maximum test concentration of the compound was 1 μM, 1 μM, 10 μM, […], 1 μM and 10 μM, were 3.16-fold gradient diluted to obtain 9 samples.
as §3
The cells in logarithmic growth phase were harvested to ensure that the cell viability was above 90%. 3000 cell/well were seeded in 96-well plate (Corning, Cat #3603). The cells were incubated overnight with 5% CO2, 95% humidity at 37° C. Then each well containing the cells of the 96-well plate was added the compound solutions, 3 wells for each compound solution, and continued to incubate for another 72 hrs. Then CellTiter-Glo® kit (Promega, Cat #G7572) was used to do the detection. First, the CTG reagent was melted and the cell plate was balanced to room temperature. The same volume of CTG solution was added into each well and vibrated on the shaker for 5 minutes to lyse the cells. The cell plate was kept at room temperature for 20 minutes to stabilize the luminescent signal. The luminescent value was collected by SpectraMax microplate detector (MD, 2104-0010A). […] Cell survival rate (%)=(1umdrug−1ummedium)/(1umcell−lummedium)×100%

[5] = Blood-to-brain distribution in rats; type: in vivo; conditions: male, SD, rat, 10 mg/kg single oral gavage
Procedure: 7. Blood-to-Brain Distribution
Male SD rats were grouped, each group having 12 rats. Each group was given the compound of Examples (10 mg/kg) by single oral gavage. The animals were fasted overnight from 10 hours before administration to 4 hours after administration. The rats were killed at 0.5, 1, 4 and 12 hours after administration, and blood and brain tissues were collected. The samples were centrifuged at 4000 rpm at 4° C. for 5 min and plasma was transferred into the centrifuge tube and stored at −80° C. until analysis. The extract from the plasma extracted by protein precipitation was analyzed by LC/MS/MS.

Sequence of TRKA (P04629 33-796): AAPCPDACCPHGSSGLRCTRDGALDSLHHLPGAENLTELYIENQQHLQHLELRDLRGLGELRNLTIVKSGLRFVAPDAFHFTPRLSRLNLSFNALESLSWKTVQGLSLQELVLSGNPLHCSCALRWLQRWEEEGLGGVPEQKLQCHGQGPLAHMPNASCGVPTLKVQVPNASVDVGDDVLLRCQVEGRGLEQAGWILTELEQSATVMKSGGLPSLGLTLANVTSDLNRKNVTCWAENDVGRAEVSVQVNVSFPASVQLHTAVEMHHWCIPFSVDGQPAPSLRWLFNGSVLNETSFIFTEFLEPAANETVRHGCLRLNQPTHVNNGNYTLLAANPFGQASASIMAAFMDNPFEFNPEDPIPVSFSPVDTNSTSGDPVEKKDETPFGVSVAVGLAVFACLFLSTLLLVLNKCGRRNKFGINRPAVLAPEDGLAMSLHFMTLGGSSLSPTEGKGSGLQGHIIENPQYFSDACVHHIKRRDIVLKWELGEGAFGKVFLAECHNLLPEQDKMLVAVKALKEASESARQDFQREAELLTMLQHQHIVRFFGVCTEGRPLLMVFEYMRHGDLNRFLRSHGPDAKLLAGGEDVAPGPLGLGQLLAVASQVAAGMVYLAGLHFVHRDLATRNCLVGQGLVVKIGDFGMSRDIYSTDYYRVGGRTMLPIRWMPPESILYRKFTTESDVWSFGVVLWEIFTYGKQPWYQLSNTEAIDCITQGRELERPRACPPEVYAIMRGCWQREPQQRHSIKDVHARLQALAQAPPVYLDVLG

pIC50 ([1]; test batch marked #): 8.98 | pIC50 ([1]; test batch marked *): 8.27 | pIC50 ([2]; test batch marked #): 8.87 | pIC50 ([2]; test batch marked *): 8.11 | pIC50 [3]: 9.89 | pIC50 ([4]; test batch marked #): 7.19 | pIC50 ([4]; test batch marked *): 7.00 | Kp ([5]; brain/plasma, AUC0-inf ratio): 1.14 | AUC(0-inf) ([5]; brain, read-out: AUC0-inf Brain): 20.8 µM·h | AUC(0-inf) ([5]; plasma, read-out: AUC0-inf Plasma): 18.2 µM·h
Compound: C[C@H]1COC(=O)c2cnn3ccc(nc23)N[C@H](C)c2cc(F)ccc2O1 [Example 1, (1^3E,1^4E,3R,6S)-4^5-fluoro-3,6-dimethyl-5,8-dioxa-2-aza-1(5,3)-pyrazolo[1,5-a]pyrimidina-4(1,2)-benzenacyclononaphan-9-one]
